In general, IC50 refers to the concentration at which inhibition is half-maximal. As usually defined, the EC50 is the concentration that produces a half-maximal response.

SMILES strings stand for the structures.

In one assay the target is SARS-CoV-2 3CL-protease (Severe acute respiratory syndrome coronavirus 2 (2019-nCoV) (SARS-CoV-2), UniProt P0DTD1). Kind of assay: SARS-CoV-2 3C-like (3CL) protease fluorescence assay (FRET). Format: biochemical. Particulars: recombinant SARS-CoV-2 3CL-protease 10 nM, 30 min preincubation, peptide substrate, duplicate.
For `CC(C)C[C@@H](C(=O)N1C[C@]2(C[C@H]1C#N)C(=O)Nc1ccccc12)N(C)C(=O)CC(=O)N[C@@H]1CC[C@H](O)C1` [Compound 45], the IC50 was less than 100 nM. With `CC(C)C[C@@H](C(=O)N1C[C@]2(C[C@H]1C#N)C(=O)Nc1ccccc12)N(C)C(=O)CC(=O)N[C@@H]1CCN(C(=O)OC(C)(C)C)C1` [Compound 36], the IC50 was 100 to 1000 nM. Same read-out and setting: with `CC(C)C[C@@H](C(=O)N1C[C@]2(C[C@H]1C#N)C(=O)Nc1ccccc12)N(C)C(=O)CC(=O)Nc1cccnc1` [Compound 22] the figure was less than 100 nM. Same read-out and setting: with `CC(C)C[C@@H](C(=O)N1C[C@]2(C[C@H]1C#N)C(=O)Nc1ccccc12)N(C)C(=O)CC(=O)Nc1ccc(F)cc1` [Compound 26] the figure was less than 100 nM.

`Cc1cccc(C)c1NC(=O)C1(C(=O)N[C@@H](CC(C)(C)C)C(=O)N2C[C@]3(C[C@H]2C#N)C(=O)Nc2ccccc23)CC1` [Compound 29]: the IC50 is less than 100 nM. Consider `CC(C)C[C@H](C(=O)Nc1cc(F)cc(F)c1)C(=O)N(C)[C@@H](CC(C)C)C(=O)N1C[C@]2(C[C@H]1C#N)C(=O)Nc1ccccc12` (single isomer, unassigned) [Compound 4], for which the IC50 was less than 100 nM.

Regarding `CC(C)C[C@@H](C(=O)N1C[C@]2(C[C@H]1C#N)C(=O)Nc1ccccc12)N(C)C(=O)CC(=O)c1cc2c(F)cc(F)cc2[nH]1` [Compound 6], the IC50 is less than 100 nM. With `CC(C)(C)C[C@H](NC(=O)C(C)(C)C(=O)Nc1cc(F)ccc1F)C(=O)N1C[C@]2(C[C@H]1C#N)C(=O)Nc1ccccc12` [Compound 11], the IC50 is less than 100 nM. Still for that read-out and setting: with `CC(C)C[C@@H](C(=O)N1C[C@]2(C[C@H]1C#N)C(=O)Nc1ccccc12)N(C)C(=O)CC(=O)N[C@@H]1CCC[C@H]1O` [Compound 43] the figure was less than 100 nM; with `CC(C)C[C@@H](C(=O)N1C[C@]2(C[C@H]1C#N)C(=O)Nc1ccccc12)N(C)C(=O)CC(=O)NCC(C)(C)O` [Compound 15], less than 100 nM. On the same count and under the same terms, with `CC(C)C[C@@H](C(=O)N1C[C@]2(C[C@H]1C#N)C(=O)Nc1ccccc12)N(C)C(=O)CC(=O)N[C@H]1CCC[C@H]1O` [Compound 44] the figure was less than 100 nM. `CC(C)C[C@@H](C(=O)N1C[C@]2(C[C@H]1C#N)C(=O)Nc1ccccc12)N(C)C(=O)CC(=O)Nc1ccccn1` [Compound 21]: the IC50 is less than 100 nM. Still for that read-out and setting: to `CC(C)C[C@@H](C(=O)N1C[C@]2(C[C@H]1C#N)C(=O)Nc1ccccc12)N(C)C(=O)C(C)(C)C(=O)O` [Compound 7] belongs greater than 1000 nM. On the same count and under the same terms, to `Cc1cccc(C)c1NC(=O)CC(=O)N(C)[C@@H](CC(C)C)C(=O)N1C[C@]2(C[C@H]1C#N)C(=O)Nc1ccccc12` [Compound 10] belongs less than 100 nM. The same measure, in the same setting: with `CC(C)C[C@@H](C(=O)N1C[C@]2(C[C@H]1C#N)C(=O)Nc1ccccc12)N(C)C(=O)CC(=O)Nc1ccccc1` [Compound 16] the figure was less than 100 nM; with `CC(C)C[C@@H](C(=O)N1C[C@]2(C[C@H]1C#N)C(=O)Nc1ccccc12)N(C)C(=O)CC(=O)N[C@@H](C)c1ccccc1` [Compound 20], 100 to 1000 nM; with `CC(C)C[C@@H](C(=O)N1C[C@]2(C[C@H]1C#N)C(=O)Nc1ccccc12)N(C)C(=O)CC(=O)NCc1ccccc1` [Compound 17], less than 100 nM. `CC(C)C[C@@H](C(=O)N1C[C@]2(C[C@H]1C#N)C(=O)Nc1ccccc12)N(C)C(=O)CC(=O)Nc1ccccc1F` [Compound 24]: the IC50 was less than 100 nM. In the case of `CC(C)C[C@@H](C(=O)N1C[C@]2(C[C@H]1C#N)C(=O)Nc1ccccc12)N(C)C(=O)CC(=O)N[C@H](C)CO` [Compound 33], the IC50 was less than 100 nM. The same measure, in the same setting: to `CC(C)C[C@@H](C(=O)N1C[C@]2(C[C@H]1C#N)C(=O)Nc1ccccc12)N(C)C(=O)CC(=O)NC[C@H](C)O` [Compound 31] belongs less than 100 nM; to `Cc1cccc(C)c1NC(=O)C1(C(=O)N[C@@H](CC(C)C)C(=O)N2C[C@]3(C[C@H]2C#N)C(=O)Nc2ccccc23)CCOCC1` [Compound 38], less than 100 nM. As for `CC(C)C[C@@H](C(=O)N1C[C@]2(C[C@H]1C#N)C(=O)Nc1ccccc12)N(C)C(=O)CC(=O)N[C@@H]1CC[C@@H](O)C1` [Compound 47], the IC50 was less than 100 nM. Turning to `CC(C)CC(C(=O)Nc1cc(F)cc(F)c1)C(=O)N(C)[C@@H](CC(C)C)C(=O)N1C[C@]2(C[C@H]1C(N)=O)C(=O)Nc1ccccc12` (stereo partly shown) [Compound 2], the IC50 was less than 100 nM. On the same count and under the same terms, to `CC(C)C[C@@H](C(=O)N1C[C@]2(C[C@H]1C#N)C(=O)Nc1ccccc12)N(C)C(=O)CC(=O)Nc1ccc(F)cc1F` [Compound 1] belongs less than 100 nM; to `CC(C)C[C@@H](C(=O)N1C[C@]2(C[C@H]1C#N)C(=O)Nc1ccccc12)N(C)C(=O)CC(=O)N[C@H](C)C(F)(F)F` [Compound 50], less than 100 nM; to `Cc1cccc(C)c1NC(=O)C(C)(C)C(=O)N[C@@H](CC(C)(C)C)C(=O)N1C[C@]2(C[C@H]1C#N)C(=O)Nc1ccccc12` [Compound 12], less than 100 nM.

With `CC(C)C[C@@H](C(=O)N1C[C@]2(C[C@H]1C#N)C(=O)Nc1ccccc12)N(C)C(=O)CC(=O)Nc1cccc2ccccc12` [Compound 19], the IC50 was less than 100 nM. The same measure, in the same setting: with `CC(C)C[C@@H](C(=O)N1C[C@]2(C[C@H]1C#N)C(=O)Nc1ccccc12)N(C)C(=O)CC(=O)N[C@H]1CC[C@@H](O)C1` [Compound 48] the figure was less than 100 nM. On the same count and under the same terms, to `Cc1cccc(C)c1NC(=O)C(C)(C)C(=O)N(C)[C@@H](CC(C)C)C(=O)N1C[C@]2(C[C@H]1C#N)C(=O)Nc1ccccc12` [Compound 9] belongs 100 to 1000 nM; to `Cc1cccc(C)c1NS(=O)(=O)CC(=O)N(C)[C@@H](CC(C)C)C(=O)N1C[C@]2(C[C@H]1C#N)C(=O)Nc1ccccc12` [Compound 13], less than 100 nM. With `CC(C)C[C@H](NC(=O)C1(C(=O)NCC(C)(C)O)CCC1)C(=O)N1C[C@]2(C[C@H]1C#N)C(=O)Nc1ccccc12` [Compound 39], the IC50 was less than 100 nM. On the same count and under the same terms, with `CC(C)C[C@@H](C(=O)N1C[C@]2(C[C@H]1C#N)C(=O)Nc1ccccc12)N(C)C(=O)CC(=O)N[C@@H](C)C(F)(F)F` [Compound 49] the figure was less than 100 nM. Still for that read-out and setting: to `CC(C)C[C@@H](C(=O)N1C[C@]2(C[C@H]1C#N)C(=O)Nc1ccccc12)N(C)C(=O)C(C)(C)C(=O)Nc1cc(F)ccc1F` [Compound 8] belongs 100 to 1000 nM; to `CC(C)C[C@@H](C(=O)N1C[C@]2(C[C@H]1C#N)C(=O)Nc1ccccc12)N(C)C(=O)CC(=O)Nc1ccncc1` [Compound 23], less than 100 nM. The same measure, in the same setting: to `Cc1cccc(C)c1NC(=O)CS(=O)(=O)N(C)[C@@H](CC(C)(C)C)C(=O)N1C[C@]2(C[C@H]1C#N)C(=O)Nc1ccccc12` [Compound 14] belongs less than 100 nM.

For `CC(C)C[C@@H](C(=O)N1C[C@]2(C[C@H]1C#N)C(=O)Nc1ccccc12)N(C)C(=O)CC(=O)OC(C)(C)C` [Compound 5], the IC50 was less than 100 nM.

`CC(C)C[C@@H](C(=O)N1C[C@]2(C[C@H]1C#N)C(=O)Nc1ccccc12)N(C)C(=O)CC(=O)NC[C@@H](C)O` [Compound 32]: the IC50 is less than 100 nM. For `CC(C)C[C@@H](C(=O)N1C[C@]2(C[C@H]1C#N)C(=O)Nc1ccccc12)N(C)C(=O)CC(=O)N[C@@H](C)CO` [Compound 34], the IC50 was less than 100 nM.

For the molecule `CC(C)C[C@@H](C(=O)N1C[C@]2(C[C@H]1C#N)C(=O)Nc1ccccc12)N(C)C(=O)CC(=O)Nc1cccc(F)c1` [Compound 25], the IC50 is less than 100 nM. `CC(C)C[C@@H](C(=O)N1C[C@]2(C[C@H]1C#N)C(=O)Nc1ccccc12)N(C)C(=O)CC(=O)N[C@H]1CCN(C(=O)OC(C)(C)C)C1` [Compound 37]: the IC50 was less than 100 nM. On the same count and under the same terms, to `CC(C)C[C@@H](C(=O)N1C[C@]2(C[C@H]1C#N)C(=O)Nc1ccccc12)N(C)C(=O)CC(=O)N[C@H]1CC[C@H](O)C1` [Compound 46] belongs less than 100 nM; to `CC(C)C[C@@H](C(=O)N1C[C@]2(C[C@H]1C#N)C(=O)Nc1ccccc12)N(C)C(=O)CC(=O)N[C@@H]1CCC[C@@H]1O` [Compound 41], less than 100 nM; to `CC(C)C[C@@H](C(=O)N1C[C@]2(C[C@H]1C#N)C(=O)Nc1ccccc12)N(C)C(=O)CC(=O)N[C@H](C)c1ccccc1` [Compound 18], less than 100 nM. For the molecule `Cc1cccc(C)c1NC(=O)C1(C(=O)N[C@@H](CC(C)C)C(=O)N2C[C@]3(C[C@H]2C#N)C(=O)Nc2ccccc23)CCCC1` [Compound 30], the IC50 is less than 100 nM. As to `CC(C)C[C@@H](C(=O)N1C[C@]2(C[C@H]1C#N)C(=O)Nc1ccccc12)N(C)C(=O)CC(=O)NCC(F)F` [Compound 35], the IC50 was less than 100 nM. On the same count and under the same terms, with `CC(C)C[C@@H](C(=O)N1C[C@]2(C[C@H]1C#N)C(=O)Nc1ccccc12)N(C)C(=O)CC(=O)N[C@H]1CCC[C@@H]1O` [Compound 42] the figure was less than 100 nM; with `Cc1cccc(C)c1NC(=O)C1(C(=O)N[C@@H](CC(C)(C)C)C(=O)N2C[C@]3(C[C@H]2C#N)C(=O)Nc2ccccc23)CCOCC1` [Compound 40], less than 100 nM; with `CC(C)C[C@@H](C(=O)N1C[C@]2(C[C@H]1C#N)C(=O)Nc1ccccc12)N(C)C(=O)CC(=O)Nc1cn[nH]c1` [Compound 27], less than 100 nM.

A further assay deals with 229E human corona virus (hCoV). Kind of assay: 229E live virus assay (CPE, ATPlite) in MRC-5 cells. Format: cell-based, hCoV-229E. Particulars: Human coronavirus 229E, MRC5, 144 h, read-out: 229E EC50. Background: In ATP-based viability assays light output follows the ATP content of the culture.
As to `CC(C)C[C@H](C(=O)Nc1cc(F)cc(F)c1)C(=O)N(C)[C@@H](CC(C)C)C(=O)N1C[C@]2(C[C@H]1C#N)C(=O)Nc1ccccc12` (single isomer, unassigned) [Compound 4], the EC50 was less than 100 nM. Same read-out and setting: with `CC(C)C[C@@H](C(=O)Nc1cc(F)cc(F)c1)C(=O)N(C)[C@@H](CC(C)C)C(=O)N1C[C@]2(C[C@H]1C#N)C(=O)Nc1ccccc12` [Compound 3] the figure was 100 to 1000 nM.

Staying with this assay, now noted: Human coronavirus 229E, MRC5, 144 h; MRC-5 cells, MOI 0.05, 6 days at 34° C., ATPlite readout, duplicate; read-out: 229E EC50.
`CC(C)C[C@@H](C(=O)N1C[C@]2(C[C@H]1C#N)C(=O)Nc1ccccc12)N(C)C(=O)CC(=O)c1cc2c(F)cc(F)cc2[nH]1` [Compound 6]: the EC50 was less than 100 nM. On the same count and under the same terms, with `CC(C)(C)C[C@H](NC(=O)C(C)(C)C(=O)Nc1cc(F)ccc1F)C(=O)N1C[C@]2(C[C@H]1C#N)C(=O)Nc1ccccc12` [Compound 11] the figure was 100 to 1000 nM; with `CC(C)CC(C(=O)Nc1cc(F)cc(F)c1)C(=O)N(C)[C@@H](CC(C)C)C(=O)N1C[C@]2(C[C@H]1C(N)=O)C(=O)Nc1ccccc12` (stereo partly shown) [Compound 2], 100 to 1000 nM. On the same count and under the same terms, to `CC(C)C[C@@H](C(=O)N1C[C@]2(C[C@H]1C#N)C(=O)Nc1ccccc12)N(C)C(=O)CC(=O)Nc1ccc(F)cc1F` [Compound 1] belongs less than 100 nM; to `CC(C)C[C@@H](C(=O)N1C[C@]2(C[C@H]1C#N)C(=O)Nc1ccccc12)N(C)C(=O)CC(=O)OC(C)(C)C` [Compound 5], less than 100 nM.

The values above are taken from patent publication US11912714B2, “Spiropyrrolidine derived antiviral agents” (ENANTA PHARMACEUTICALS, INC., priority 2021, dated 2024).
